Experimental data reported in patent US20160207930A1 (LEO PHARMA A/S, priority 2013, published 2016).

Key:
NK1 Receptor = molecular target: T1, NK1 Receptor (Homo sapiens, UniProt P25103); assay: NK1 receptor mediated intracellular [Ca2+] mobilization in U251 MG cells using FLIPR; format: cell-based; settings: antagonism of Substance P (EC80), Fluo-4, read-out: NK1R mediated intracellular [Ca^2+] mobilization IC 50
T1 construct: Measurement of NK1 Receptor Mediated Intracellular [Ca^2+]; Mobilization in U251 MG Cells Using FLIPR; endogenous in cells; host or cells: U251 MG cells
T1 sequence (P25103 whole entry): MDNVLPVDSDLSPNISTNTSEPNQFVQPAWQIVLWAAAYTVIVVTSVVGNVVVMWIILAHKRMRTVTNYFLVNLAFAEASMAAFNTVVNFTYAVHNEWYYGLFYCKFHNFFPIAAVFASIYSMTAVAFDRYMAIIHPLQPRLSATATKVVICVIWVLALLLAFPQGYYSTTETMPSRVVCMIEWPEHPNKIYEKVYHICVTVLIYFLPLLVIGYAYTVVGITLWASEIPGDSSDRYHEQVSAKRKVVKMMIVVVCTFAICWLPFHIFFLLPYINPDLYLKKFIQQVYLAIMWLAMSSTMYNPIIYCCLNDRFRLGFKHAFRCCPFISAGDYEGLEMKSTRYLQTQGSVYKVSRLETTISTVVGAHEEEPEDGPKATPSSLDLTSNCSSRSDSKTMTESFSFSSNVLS
Method: Measurement of NK1 Receptor Mediated Intracellular [Ca^2+] Mobilization in U251 MG Cells Using FLIPR
U251 MG cells were seeded into black walled clear-bottom 384-well plates (Greiner Bio-One GmbH, Frickenhausen, Germany) at a density of 15,000 cells/well in 50 μl culture medium and cultured overnight in a 37° C. 5% CO2 incubator. The cells were then loaded with the calcium sensitive dye Fluo-4 (Invitrogen) at 1 μM in buffer, containing 0.04% Pluronic F-127 (Sigma-Aldrich), and 2.5 mM probenecid (Sigma-Aldrich) for 60 min in a humidified atmosphere of 5% CO2. Thereafter, cells were washed three times in washing buffer containing 20 mM HEPES and 2.5 mM probenecid pH 7.3. Serial dilutions of test compounds in assay buffer containing 2% dimethyl sulfoxide (final concentration in the cell plate is 0.5% DMSO) and/or agonist were then automatically pipetted into each test well, and the peak fluorescence intensity was recorded (lex, 488 nm; lem, 540 nm) by the FLIPR instrument (Molecular Devices) for approximately 5 min. To measure antagonist potency, cell plates were first incubated with the test compound and intracellular fluorescence recorded for 5 minutes to check a potential agonist effect of the test compound. Cell plates were quickly removed from the FLIPR instrument and incubated for additional 10 minutes at 37° C. before being moved back to the FLIPR instrument for Substance P (EC80) addition. The response was measured as the peak relative fluorescence change after agonist addition.
Compound relative %-effect was normalized to the maximal response evoked by 100 nM Aprepitant in presence of the EC80 of Substance P and the antagonist potency determined by non-linear regression using GraphPad Prism (version 5) or the four-parameter logistic model in XLfit (IDBS, Guilford, UK) for Microsoft Excel (Microsoft, Redmond, Wash.). The IC50 value is defined as the molar concentration of a test compound that produces a response midway between the fitted top and the fitted bottom. pIC50=−log IC50
Formula is listed as follows:
Fit (% Effect calculated)=(A+((B−A)/(1+((C/X)̂D)))) • A: bottom value • B: top value • C: test compound concentration • X: Relative IC50 • D: Hill slope coefficient
Ref: Sullivan E, Tucker E M, and Dale I L. Measurement of [Ca^2+] using the Fluorometric Imaging Plate Reader (FLIPR). Methods Mol Biol 114:125-133, 1999.
Compounds of the present invention were tested according to example 100.

[1] = Hepatic intrinsic clearance following incubation in human liver microsomes; format: in vitro ADME; settings: 0.5 μM test compound, NADPH, 0-30 min, scaled to g liver
Method: Hepatic Extraction Ratio from Hepatic Intrinsic Clearance Following Incubation in Human Liver Microsomes
The general procedure consists of an automated incubation system and LC-MS/MS analysis with human liver microsomes. Human liver microsomes are thawed rapidly in a waterbath at 37° C. and kept on ice until use. The human liver microsomes are diluted with 50 mM potassium phosphate buffer pH 7.4 to a protein concentration of 0.55 mg/mL. Test compounds and positive controls (Verapamil and Dextromethorphan, positive controls for CYP3A4 for CYP2D6 isoforms, respectively) are dissolved in methanol (or other appropriate solvent, if necessary) in order to obtain a 5 mM solution which is further diluted to the concentration of 50 μM. The stock solutions are prepared immediately before the test.
5 μL of 50 μM test compounds and controls are added to 445 μL-of the 0.55 mg/mL microsomes solution and the incubation mixture are pre-warmed at 37° C. for 5 minutes. The incubation reactions are initiated by adding 50 μL of pre-warmed NADPH regenerating system to the incubation mixtures. 50 μL-aliquots will be taken from the incubation mixtures at: 0, 3, 6, 9, 15 and 30 minutes and the reactions are stopped by adding 100 μL of ACN containing Rolipram, used as generic Internal Standard (IS). Samples are then diluted with 120 μL of Milli-Q water and centrifuged at 3000 rpm for 10 minutes, prior the LC-MS/MS analysis.
The integrated peak areas for test compounds at the selected time points are divided by the respective peak areas of the IS and the percent of parent remaining is calculated by normalizing the peak area ratio of parent to IS at 0 min. Observed rate constant (kobs) for parent degradation is calculated by determining the slope of the line of the graph of the natural log of percentage parent remaining versus time of incubation. From the rate of depletion (min−1) and volume of the incubation (mL), clearance is estimated. This is scaled for the protein in the incubation relative to that in the intact liver, for all species (mL/min/g liver).
Values for the Human in vitro Clint are expressed as mL/min/g liver.
Assuming a liver weight of 25.7 g/kg and a liver blood flow of 20.7 mL/min/kg, the hepatic extraction ratio, Eh, can be derived from the Human in vitro Clint:
E.g. a Human in vitro Clint of 2.4 mL/min/g liver corresponds to a hepatic extraction ratio of 75%.
Some compounds of the present invention were tested according to example 101.

SMILES	IC50 (NK1 Receptor)	Human in vitro Clint [1]
Cc1ccc([C@@H]2[C@H]3CCC(=O)N3CCN2C(=O)N(C)Cc2cc(C(F)(F)F)cc(C(F)(F)F)c2)c(C)c1 (racemic) [Compound 3, N-(3,5-bis(trifluoromethyl)benzyl)-1-(2,4-dimethylphenyl)-N-methyl-6-oxohexahydropyrrolo[1,2-a]pyrazine-2(1H)-carboxamide]	0.297 nM	>200 mL/min/g
Cc1cc([C@@H](C)N(C)C(=O)N2CCN3C(=O)C(CCO)(CCO)CC3C2c2ccc(C)cc2C)cc(C(F)(F)F)c1 (mixture of isomers) [Compound 8, 1-(2,4-dimethylphenyl)-7,7-bis(2-hydroxyethyl)-N-methyl-N—((R)-1-(3-methyl-5-(trifluoromethyl)phenyl)ethyl)-6-oxo-hexahydropyrrolo[1,2-a]pyrazine-2(1H)-carboxamide]	0.096 nM	>200 mL/min/g
Cc1ccc([C@@H]2[C@H]3CC(CCO)(CCO)C(=O)N3CCN2C(=O)N(C)Cc2cc(C(F)(F)F)cc(C(F)(F)F)c2)c(C)c1 (racemic) [Compound 9, N-(3,5-bis(trifluoromethyl)benzyl)-1-(2,4-dimethylphenyl)-7,7-bis(2-hydroxyethyl)-N-methyl-6-oxohexahydropyrrolo[1,2-a]pyrazine-2(1H)-carboxamide]	0.18 nM	>200 mL/min/g
Cc1ccc(C2C3CCC(=O)N3CCN2C(=O)N(C)[C@H](C)c2cc(C(F)(F)F)cc(C(F)(F)F)c2)c(C)c1 (single isomer, unassigned) [Compound 1]	0.154 nM	>200 mL/min/g
Cc1ccc(C2C3CCC(=O)N3CCN2C(=O)N(C)[C@H](C)c2cc(C(F)(F)F)cc(C(F)(F)F)c2)c(C)c1 (single isomer, unassigned) [Compound 2]	7.79 nM	>200 mL/min/g
Cc1cc([C@@H](C)N(C)C(=O)N2CCN3C(=O)CCC3C2c2ccc(C)cc2C)cc(C(F)(F)F)c1 (single isomer, unassigned) [Compound 4]	9.26 nM	>200 mL/min/g
Cc1cc([C@@H](C)N(C)C(=O)N2CCN3C(=O)CCC3C2c2ccc(C)cc2C)cc(C(F)(F)F)c1 (single isomer, unassigned) [Compound 5]	0.437 nM	>200 mL/min/g
Cc1ccc(C2C3CC(CCO)(CCO)C(=O)N3CCN2C(=O)N(C)[C@H](C)c2cc(C(F)(F)F)cc(C(F)(F)F)c2)c(C)c1 (single isomer, unassigned) [Compound 6]	1.59 nM	>200 mL/min/g
Cc1ccc(C2C3CC(CCO)(CCO)C(=O)N3CCN2C(=O)N(C)[C@H](C)c2cc(C(F)(F)F)cc(C(F)(F)F)c2)c(C)c1 (single isomer, unassigned) [Compound 7]	0.08 nM	>200 mL/min/g
Cc1cc(F)ccc1C1C2CC(CCO)(CCO)C(=O)N2CCN1C(=O)N(C)[C@H](C)c1cc(Cl)cc(C(F)(F)F)c1 (single isomer, unassigned) [Compound 10]	0.063 nM	>200 mL/min/g
Cc1cc(F)ccc1C1C2CC(CCO)(CCO)C(=O)N2CCN1C(=O)N(C)[C@H](C)c1cc(Cl)cc(C(F)(F)F)c1 (single isomer, unassigned) [Compound 11]	0.613 nM	>200 mL/min/g
Cc1cc([C@@H](C)N(C)C(=O)N2CCN3C(=O)C(CCO)(CCO)CC3C2c2ccc(F)cc2C)cc(C(F)(F)F)c1 (single isomer, unassigned) [Compound 12]	0.622 nM	>200 mL/min/g

Continued, values first:

IC50 (NK1 Receptor)	Human in vitro Clint [1]	SMILES
0.034 nM	>200 mL/min/g	Cc1cc([C@@H](C)N(C)C(=O)N2CCN3C(=O)C(CCO)(CCO)CC3C2c2ccc(F)cc2C)cc(C(F)(F)F)c1 (single isomer, unassigned) [Compound 13]
0.094 nM	>200 mL/min/g	Cc1cc(F)ccc1C1C2CC(CCO)(CCO)C(=O)N2CCN1C(=O)N(C)[C@H](C)c1cc(C(F)(F)F)cc(C(F)(F)F)c1 (single isomer, unassigned) [Compound 14]
2.54 nM	104 mL/min/g	Cc1cc(F)ccc1C1C2CC(CCO)(CCO)C(=O)N2CCN1C(=O)N(C)[C@H](C)c1cc(C(F)(F)F)cc(C(F)(F)F)c1 (single isomer, unassigned) [Compound 15]
1.15 nM	>200 mL/min/g	COc1ccc(C2C3CCC(=O)N3CCN2C(=O)N(C)[C@H](C)c2cc(C(F)(F)F)cc(C(F)(F)F)c2)c(C)c1 (single isomer, unassigned) [Compound 18]
38.8 nM	>200 mL/min/g	COc1ccc(C2C3CCC(=O)N3CCN2C(=O)N(C)[C@H](C)c2cc(C(F)(F)F)cc(C(F)(F)F)c2)c(C)c1 (single isomer, unassigned) [Compound 19]
0.02 nM	–	C[C@H](c1cc(C(F)(F)F)cc(C(F)(F)F)c1)N(C)C(=O)N1CCN2C(=O)CC[C@H]2[C@@H]1c1ccccc1Cl (single isomer, unassigned) [Compound 72]
1.38 nM	–	C[C@H](c1cc(C(F)(F)F)cc(C(F)(F)F)c1)N(C)C(=O)N1CCN2C(=O)CC[C@H]2[C@@H]1c1ccccc1Cl (single isomer, unassigned) [Compound 73]
0.06 nM	–	C[C@H](c1cc(C(F)(F)F)cc(C(F)(F)F)c1)N(C)C(=O)N1CCN2C(=O)CC[C@H]2[C@@H]1c1ccc(F)cc1Cl (single isomer, unassigned) [Compound 83]
1.15 nM	–	C[C@H](c1cc(C(F)(F)F)cc(C(F)(F)F)c1)N(C)C(=O)N1CCN2C(=O)CC[C@H]2[C@@H]1c1ccc(F)cc1Cl (single isomer, unassigned) [Compound 84]
2.97 nM	–	Cc1cccnc1[C@H]1[C@@H]2CCC(=O)N2CCN1C(=O)N(C)[C@H](C)c1cc(C(F)(F)F)cc(C(F)(F)F)c1 [Compound 43, (1R,8aS)—N—((R)-1-(3,5-bis(trifluoromethyl)phenyl)ethyl)-N-methyl-1-(3-methylpyridin-2-yl)-6-oxo-hexahydropyrrolo[1,2-a]pyrazine-2(1H)-carboxamide]
0.893 nM	–	Cc1ncccc1[C@H]1[C@@H]2CCC(=O)N2CCN1C(=O)N(C)[C@H](C)c1cc(C(F)(F)F)cc(C(F)(F)F)c1 [Compound 47, (1S,8aS)—N—((R)-1-(3,5-bis(trifluoromethyl)phenyl)ethyl)-N-methyl-1-(2-methylpyridin-3-yl)-6-oxo-hexahydropyrrolo[1,2-a]pyrazine-2(1H)-carboxamide]
31.8 nM	–	Cc1n[nH]cc1[C@H]1[C@@H]2CCC(=O)N2CCN1C(=O)N(C)[C@H](C)c1cc(C(F)(F)F)cc(C(F)(F)F)c1 [Compound 60, (1S,8aS)—N—((R)-1-(3,5-bis(trifluoromethyl)phenyl)ethyl)-N-methyl-1-(3-methyl-1H-pyrazol-4-yl)-6-oxohexahydropyrrolo[1,2-a]pyrazine-2(1H)-carboxamide]
